“And” between values parts separate entries of the source, which are not always exact repeats. Identical values can stand only once.
Tests used:
D(4) dopamine receptor = molecular target: T1, D(4) dopamine receptor (Homo sapiens, UniProt P21917); assay: Displacement of [3H]spiperone from human D4 receptor expressed in CHO cells; assay type: cell-based
T1 sequence (P21917 whole entry): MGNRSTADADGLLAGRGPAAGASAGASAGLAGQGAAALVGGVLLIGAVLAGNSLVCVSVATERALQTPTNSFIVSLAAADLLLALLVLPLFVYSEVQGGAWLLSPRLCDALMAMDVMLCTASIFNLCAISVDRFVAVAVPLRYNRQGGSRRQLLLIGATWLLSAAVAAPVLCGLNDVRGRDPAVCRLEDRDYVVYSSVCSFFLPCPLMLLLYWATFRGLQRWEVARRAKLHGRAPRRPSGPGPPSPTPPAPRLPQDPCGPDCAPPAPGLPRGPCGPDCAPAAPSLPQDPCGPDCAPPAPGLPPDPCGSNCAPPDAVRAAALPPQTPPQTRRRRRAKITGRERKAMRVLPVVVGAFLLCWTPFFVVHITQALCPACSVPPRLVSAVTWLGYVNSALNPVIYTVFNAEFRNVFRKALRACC

D(2) dopamine receptor [1] = molecular target: T2, D(2) dopamine receptor (Homo sapiens, UniProt P14416); assay: biochemical
T2 sequence (P14416 whole entry): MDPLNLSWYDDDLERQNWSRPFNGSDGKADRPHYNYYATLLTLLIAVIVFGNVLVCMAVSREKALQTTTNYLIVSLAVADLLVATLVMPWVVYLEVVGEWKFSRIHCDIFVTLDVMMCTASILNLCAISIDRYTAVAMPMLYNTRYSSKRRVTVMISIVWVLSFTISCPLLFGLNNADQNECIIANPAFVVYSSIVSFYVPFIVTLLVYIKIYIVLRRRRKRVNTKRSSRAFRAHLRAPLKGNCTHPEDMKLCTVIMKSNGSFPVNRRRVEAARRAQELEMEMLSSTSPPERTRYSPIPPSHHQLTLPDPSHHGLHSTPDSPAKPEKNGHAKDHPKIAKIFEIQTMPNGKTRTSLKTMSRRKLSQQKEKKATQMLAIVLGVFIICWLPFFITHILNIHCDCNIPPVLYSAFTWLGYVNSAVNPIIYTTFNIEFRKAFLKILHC
Description: Displacement of [3H]spiperone from human D2 long receptor expressed in CHO cells

D(3) dopamine receptor = D(3) dopamine receptor (Homo sapiens, UniProt P35462); assay: biochemical
Chain of D(3) dopamine receptor (P35462 whole entry): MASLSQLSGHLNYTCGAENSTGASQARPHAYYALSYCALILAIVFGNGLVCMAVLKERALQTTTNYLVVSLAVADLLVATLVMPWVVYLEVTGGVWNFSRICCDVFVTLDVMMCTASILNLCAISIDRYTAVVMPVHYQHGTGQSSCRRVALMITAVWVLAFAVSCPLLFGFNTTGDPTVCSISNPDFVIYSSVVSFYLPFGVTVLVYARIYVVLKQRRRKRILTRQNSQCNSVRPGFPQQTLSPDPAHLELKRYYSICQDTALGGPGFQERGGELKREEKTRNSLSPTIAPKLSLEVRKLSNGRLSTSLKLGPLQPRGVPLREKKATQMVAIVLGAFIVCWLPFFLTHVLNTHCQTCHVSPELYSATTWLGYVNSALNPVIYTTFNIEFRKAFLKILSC
Description: Displacement of [3H]spiperone from human D3 receptor expressed in CHO cells

D(2) dopamine receptor [2] = molecular target: T2, D(2) dopamine receptor; assay: biochemical; remark: listed apart in the source
Description: Displacement of [3H]spiperone from human D2 short receptor expressed in CHO cells

Structure (SMILES) | Ki (D(4) dopamine receptor) | Ki (D(2) dopamine receptor [1]) | Ki (D(3) dopamine receptor) [nM] | Ki (D(2) dopamine receptor [2])
COc1ccccc1N1CCN(CCCCNC(=O)c2cc3c4ccc(c3o2)CCc2ccc(cc2)CC4)CC1 | 140 nM | 170 nM | 16 | –
O=C(NCCCCN1CCN(c2cccc(Cl)c2Cl)CC1)c1cc2ccc1CCc1ccc(cc1)CC2 | 120 nM | 220 nM | 3.6 | 140 nM
O=C(NCCCCN1CCN(c2cccc(F)c2F)CC1)c1cc2ccc1CCc1ccc(cc1)CC2 | 18 nM | – | 1.9 | 35 nM

More lines, now with the values ahead:

Ki (D(4) dopamine receptor) | Ki (D(2) dopamine receptor [1]) | Ki (D(3) dopamine receptor) [nM] | Ki (D(2) dopamine receptor [2]) | Structure (SMILES)
33 nM | 42 nM | 0.46 | 28 nM | COc1c(Cl)cccc1N1CCN(CCCCNC(=O)c2cc3ccc2CCc2ccc(cc2)CC3)CC1
5.4 nM and 9.5 nM | 15 nM and 11 nM | – | 13 nM and 5.6 nM | COc1ccccc1N1CCN(CCCCNC(=O)c2cc3ccc2CCc2ccc(cc2)CC3)CC1
